The record followed here is paper PMC7336998, “Discovery of secondary sulphonamides as IDO1 inhibitors with potent antitumour effects in vivo” (Journal of Enzyme Inhibition and Medicinal Chemistry, 2020).

A word on the inhibition: it is the change of the read-out against control, counted positive when it falls. What is called melting point is the temperature of the solid-liquid transition. For orientation: IC50 means the point on the concentration scale where inhibition reaches its midpoint.

One data set deals with T1, IDO1 (Homo sapiens, UniProt P14902).
T1 construct: a human cervical cancer cell line HeLa that endogenously expresses IDO1 upon IFN-γ treatment; endogenous in cells; host or cells: HeLa cells treated with human IFN-γ
T1 sequence (P14902 whole entry): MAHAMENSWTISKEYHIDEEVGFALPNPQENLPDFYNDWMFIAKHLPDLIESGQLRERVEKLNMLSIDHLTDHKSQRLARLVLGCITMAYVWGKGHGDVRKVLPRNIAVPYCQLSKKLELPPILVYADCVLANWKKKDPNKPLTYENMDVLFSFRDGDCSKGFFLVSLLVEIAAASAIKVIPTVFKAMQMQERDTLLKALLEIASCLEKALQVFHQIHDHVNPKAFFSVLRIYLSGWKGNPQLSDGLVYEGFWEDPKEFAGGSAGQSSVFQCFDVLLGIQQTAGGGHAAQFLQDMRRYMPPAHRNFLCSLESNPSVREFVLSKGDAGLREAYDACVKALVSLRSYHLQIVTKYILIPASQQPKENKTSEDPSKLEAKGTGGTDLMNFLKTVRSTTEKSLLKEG
As to the kind of experiment: HeLa cell-based IDO1/kynurenine assay. To be noted: for inhibition at 30 µM: percentage inhibition at 30 μM, IFN-γ-treated HeLa cells, kynurenine in media; for IC50: HeLa cells, IFN-γ induced IDO1, kynurenine readout. Here is the method:
(§1) The main bioassays performed in the study, including HeLa cell-based IDO1/kynurenine assay, Western blot analysis, T cell proliferation and Treg cell differentiation experiments, were carried out as described previously.
It is well known that IDO1 is broadly expressed in human cancers and is induced by pro-inflammatory cytokines, such as interferon gamma (IFN-γ) and tumour necrosis factor alpha (TNF-α)[41]. Here we utilised a human cervical cancer cell line HeLa that endogenously expresses IDO1 upon IFN-γ treatment to evaluate the IDO1 inhibitory activity of the synthesised compounds by measuring kynurenine secreted into the media. […] Thus, we also employed this cellular assay to detect false positive IDO1 inhibitors and cytotoxic compounds by measuring HeLa cell viability. Clinical candidate navoximod was used as an assay control.

Another data set deals with IDO1 protein expression. As to the kind of experiment: Western blot of IDO1 protein expression in IFN-γ-treated HeLa cells. It counts as cell-based, human. As to conditions: HeLa cells, IFN-γ 100 ng/mL 24 h, then compounds at their IC50 concentrations for 24 h. Here is the method:
as §1
To exclude the possibility that these secondary sulphonamides inhibit IDO1 activity by down-regulating IDO1 expression, we utilised Western blot to measure the expression of IDO1 protein in HeLa cells treated with different compounds.
Figure 3. […] (B) The greyscale scanning statistical results of A. (C) HeLa cells were incubated with compound 5d (3, 10, 30 μM) for 24 h. (D) The greyscale scanning statistical results of C. (E) HeLa cells were incubated with compound 5d (3, 10, 30 μM) for 48 h. (F) The greyscale scanning statistical results of E. Data are presented as means ± SEM (n = 3).
(In general: Immunoblotting shows a protein as a band on a membrane.)

As to `CC(=O)Nc1ccc(S(=O)(=O)NCc2ccc(Cl)cc2)cc1` [3f, N-(4-(N-(4-Chlorobenzyl)sulfamoyl)phenyl)acetamide], the melting point fell in the range of 172 to 174 °C. In addition, at IDO1, the inhibition at 30 µM stood at 13.5%.
For `C=CC(=O)Nc1ccc(S(=O)(=O)Nc2ncccn2)cc1` [8h, N-(4-(N-(Pyrimidin-2-yl)sulfamoyl)phenyl)acrylamide] the same measures were 229 to 230 °C and 16.4%.
Take `C=CC(=O)Nc1ccc(S(=O)(=O)Nc2ccc(OC)cc2)cc1` [8c, N-(4-(N-(4-Methoxyphenyl)sulfamoyl)phenyl)acrylamide]: the melting point lay within 234 to 235 °C. Further, the inhibition at 30 µM on IDO1 was found to be 20.9%.
Take `C=CC(=O)Nc1ccc(S(=O)(=O)Nc2cc(C)on2)cc1` [8j, N-(4-(N-(5-Methylisoxazol-3-yl)sulfamoyl)phenyl)acrylamide]: the melting point was in the range of 232 to 233 °C. Further, at IDO1, the inhibition at 30 µM came out at 22.7%.
For `CC(=O)Nc1ccc(S(=O)(=O)Nc2ccc(C(C)C)cc2)cc1` [3c, N-(4-(N-(4-Isopropylphenyl)sulfamoyl)phenyl)acetamide], the melting point was in the range of 186 to 188 °C. For the same compound, at IDO1, the inhibition at 30 µM turned out to be 5.9%.
With `Nc1ccc(S(=O)(=O)Nc2ccccc2)cc1` [4a, 4-Amino-N-phenylbenzenesulfonamide], the inhibition at 30 µM against IDO1 was found to be 12%.
Regarding `C=CC(=O)Nc1ccc(S(=O)(=O)NCc2cccc(C(F)(F)F)c2)cc1` [5g, N-(4-(N-(3-(Trifluoromethyl)benzyl)sulfamoyl)phenyl)acrylamide], the melting point lay within 152 to 154 °C. Besides, at IDO1, the IC50 was 30.5 µM and the inhibition at 30 µM came to 49.5%.
Compound `C=CC(=O)Nc1ccc(S(=O)(=O)NCc2ccc(C(F)(F)F)cc2)cc1` [5f, N-(4-(N-(4-(Trifluoromethyl)benzyl)sulfamoyl)phenyl)acrylamide] yielded a melting point of 198 to 200 °C. Further, at IDO1, it took 39.2 µM to reach half-maximal inhibition (IC50) and the inhibition at 30 µM amounted to 38.2%.
In turn, `C=CC(=O)Nc1ccc(S(=O)(=O)NCCc2ccccc2)cc1` [5e, N-(4-(N-Phenethylsulfamoyl)phenyl)acrylamide] showed a melting point of 154 to 156 °C. Also, at IDO1, the concentration for half-maximal inhibition (IC50) was 26.3 µM and the inhibition at 30 µM is 55.2%.
`C=CC(=O)Nc1ccc(S(=O)(=O)NCc2ccccc2)cc1` [5a, N-(4-(N-Benzylsulfamoyl)phenyl)acrylamide] displayed a melting point of 116 to 118 °C. In addition, at IDO1, the half-maximal inhibitory concentration (IC50) was determined as 22.4 µM and the inhibition at 30 µM worked out at 62.5%.
For `C=CC(=O)Nc1ccc(S(=O)(=O)NCc2ccc(F)cc2)cc1` [5h, N-(4-(N-(4-Fluorobenzyl)sulfamoyl)phenyl)acrylamide], the melting point lay within 178 to 180 °C. For the same compound, on IDO1, it took 20.5 µM to reach half-maximal inhibition (IC50) and the inhibition at 30 µM amounted to 70.9%.
Turning to `Nc1ccc(S(=O)(=O)NCCc2ccccc2)cc1` [4f, 4-Amino-N-phenethylbenzenesulfonamide], at IDO1, the inhibition at 30 µM is 3.1%.
Turning to `Nc1ccc(S(=O)(=O)NCc2ccccc2)cc1` [4c, 4-Amino-N-benzylbenzenesulfonamide], at IDO1, the inhibition at 30 µM turned out to be 7.4%.
As to `CC(=O)Nc1ccc(S(=O)(=O)Nc2ccc(C)cc2)cc1` [3b, N-(4-(N-(p-Tolyl)sulfamoyl)phenyl)acetamide], the inhibition at 30 µM against IDO1 came out at 16.3%.
Compound `C=CC(=O)Nc1ccc(S(=O)(=O)NCc2ccccc2Cl)cc1` [5j, N-(4-(N-(2-Chlorobenzyl)sulfamoyl)phenyl)acrylamide] yielded a melting point of 178 to 180 °C. Also, at IDO1, the half-maximal inhibitory concentration (IC50) is 22.7 µM and the inhibition at 30 µM was found to be 65.1%.
Regarding `CC(=O)Nc1ccc(S(=O)(=O)NCCc2ccccc2)cc1` [3i, N-(4-(N-Phenethylsulfamoyl)phenyl)acetamide], the melting point was in the range of 130 to 132 °C. The inhibition at 30 µM at IDO1 came to 5.9%.
For `CC(=O)Nc1ccc(S(=O)(=O)Nc2cccc(C(C)C)c2)cc1` [3d, N-(4-(N-(3-Isopropylphenyl)sulfamoyl)phenyl)acetamide], the melting point lay in the range of 158 to 160 °C. In addition, the inhibition at 30 µM against IDO1 amounted to 14.6%.
In turn, `C=CC(=O)Nc1ccc(S(=O)(=O)NCc2ccc(Br)cc2)cc1` [5k, N-(4-(N-(4-Bromobenzyl)sulfamoyl)phenyl)acrylamide] came in with a melting point of 194 to 196 °C. At IDO1, the IC50 is 42.1 µM and the inhibition at 30 µM is 37.5%.
Compound `C=CC(=O)Nc1ccc(S(=O)(=O)Nc2cccc(Cl)c2)cc1` [8f, N-(4-(N-(3-Chlorophenyl)sulfamoyl)phenyl)acrylamide] yielded a melting point of 217 to 219 °C. Moreover, on IDO1, half-maximal inhibition (IC50) required 9.48 µM and the inhibition at 30 µM turned out to be 89.5%. In addition, the “expression of IDO1 protein” value in the data set on IDO1 protein expression is listed as “did not influence IDO1 expression”.
`C=CC(=O)Nc1ccc(S(=O)(=O)Nc2onc(C)c2C)cc1` [8i, N-(4-(N-(3,4-Dimethylisoxazol-5-yl)sulfamoyl)phenyl)acrylamide] showed a melting point of 206 to 208 °C. For the same compound, on IDO1, the inhibition at 30 µM was 23.6%.
In the case of `Nc1ccc(S(=O)(=O)NCc2ccc(Cl)cc2)cc1` [4d, 4-Amino-N-(4-chlorobenzyl)benzenesulfonamide], the melting point was in the range of 172 to 174 °C. Also, the inhibition at 30 µM against IDO1 was -4.2%.
Compound `CC(=O)Nc1ccc(S(=O)(=O)NCc2cccc(C(F)(F)F)c2)cc1` [3h, N-(4-(N-(3-(Trifluoromethyl)benzyl)sulfamoyl)phenyl)acetamide] displayed a melting point of 154 to 156 °C. Also, the inhibition at 30 µM at IDO1 was 7.8%.
Compound `C=CC(=O)Nc1ccc(S(=O)(=O)NCc2ccc(OC)cc2)cc1` [5b, N-(4-(N-(4-Methoxybenzyl)sulfamoyl)phenyl)acrylamide] returned a melting point of 156 to 158 °C. At IDO1, the IC50 stood at 40.1 µM and the inhibition at 30 µM came to 36%.
`CC(=O)Nc1ccc(S(=O)(=O)NCc2ccc(C(F)(F)F)cc2)cc1` [3g, N-(4-(N-(4-(Trifluoromethyl)benzyl)sulfamoyl)phenyl)acetamide]: the melting point is 186 to 188 °C. Moreover, the inhibition at 30 µM on IDO1 stood at 14.5%.
In turn, `C=CC(=O)Nc1ccc(S(=O)(=O)Nc2cccc(OC)c2)cc1` [8d, N-(4-(N-(3-Methoxyphenyl)sulfamoyl)phenyl)acrylamide] showed a melting point of 197 to 199 °C. In addition, at IDO1, the IC50 is 13.4 µM and the inhibition at 30 µM was found to be 74.8%.
The compound `CC(=O)Nc1ccc(S(=O)(=O)Nc2ccccc2)cc1` [3a, N-(4-(N-Phenylsulfamoyl)phenyl)acetamide] yielded a melting point of 204 to 206 °C. The inhibition at 30 µM against IDO1 amounted to 3.9%.
As for `C=CC(=O)Nc1ccc(S(=O)(=O)NCc2ccc(Cl)c(Cl)c2)cc1` [5m, N-(4-(N-(3,4-Dichlorobenzyl)sulfamoyl)phenyl)acrylamide], the melting point was in the range of 148 to 150 °C. On IDO1, 37.3 µM corresponded to half-maximal inhibition (IC50) and the inhibition at 30 µM came to 44%.
As to `Cc1ccc(NS(=O)(=O)c2ccc(N)cc2)cc1` [4b, 4-Amino-N-(p-tolyl)benzenesulfonamide], the inhibition at 30 µM against IDO1 was found to be 10.8%.
Take `C=CC(=O)Nc1ccc(S(=O)(=O)Nc2ccccc2)cc1` [8a, N-(4-(N-Phenylsulfamoyl)phenyl)acrylamide]: the melting point is 212 to 213 °C. Besides, on IDO1, the IC50 is 13.2 µM and the inhibition at 30 µM amounted to 85.9%.
`Nc1ccc(S(=O)(=O)NCc2cccc(Cl)c2)cc1` [4e, 4-Amino-N-(3-chlorobenzyl)benzenesulfonamide] had a melting point of 119 to 121 °C. Besides, on IDO1, the IC50 was more than 50 µM and the inhibition at 30 µM worked out at 2.3%.
The compound `C=CC(=O)Nc1ccc(S(=O)(=O)NCc2ccc(Cl)cc2)cc1` [5c, N-(4-(N-(4-Chlorobenzyl)sulfamoyl)phenyl)acrylamide] came in with a melting point of 190 to 192 °C. At IDO1, it took 36.2 µM to reach half-maximal inhibition (IC50) and the inhibition at 30 µM turned out to be 40.4%.
`C=CC(=O)Nc1ccc(S(=O)(=O)Nc2ccc(C)cc2)cc1` [8b, N-(4-(N-(p-Tolyl)sulfamoyl)phenyl)acrylamide] registered a melting point of 230 to 232 °C. Further, the inhibition at 30 µM on IDO1 amounted to 25.3%.
Turning to `C=CC(=O)Nc1ccc(S(=O)(=O)Nc2cccc(F)c2)cc1` [8e, N-(4-(N-(3-Fluorophenyl)sulfamoyl)phenyl)acrylamide], the melting point fell in the range of 212 to 215 °C. In addition, on IDO1, the half-inhibitory concentration (IC50) came to 17.7 µM and the inhibition at 30 µM stood at 69.7%.
For `C=CC(=O)Nc1ccc(S(=O)(=O)NCc2cccc(F)c2)cc1` [5i, N-(4-(N-(3-Fluorobenzyl)sulfamoyl)phenyl)acrylamide] the same measures were 152 to 154 °C, 39.5 µM and 37.8%.
With `CC(=O)Nc1ccc(S(=O)(=O)NCc2ccccc2)cc1` [3e, N-(4-(N-Benzylsulfamoyl)phenyl)acetamide], the inhibition at 30 µM against IDO1 came out at 2.5%.
